In patent publication US7608622B2, “Imidazo[4,5-b]pyrazinone inhibitors of protein kinases” (Janssen Pharmaceutica NV, priority 2004, dated 2009):
pIC50: −log10 of the molar value.

Biological target: T1, Aurora-2 (Homo sapiens, UniProt O14965)
T1 construct: autophosphorylation of Aurora-2 (residues 125-391)
T1 sequence (O14965 125-391): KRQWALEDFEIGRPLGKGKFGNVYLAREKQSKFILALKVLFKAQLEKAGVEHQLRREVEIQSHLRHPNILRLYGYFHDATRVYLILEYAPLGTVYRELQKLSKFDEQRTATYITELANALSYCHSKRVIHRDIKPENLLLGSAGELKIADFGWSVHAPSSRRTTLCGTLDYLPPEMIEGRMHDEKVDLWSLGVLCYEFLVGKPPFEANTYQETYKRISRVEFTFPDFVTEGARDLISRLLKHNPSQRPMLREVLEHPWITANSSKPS
Assay: Aurora-2 Enzymatic Assay (ELISA-based)
Format: biochemical
Conditions: phosphorylated Aurora-2 (residues 125-391), Histone H3 Ser-10 phosphorylation, averages of three independent measurements; read-out: Aurora-2 IC50 Enzyme
Method: In vitro assays were run to measure potency of Aurora-2 kinase inhibition by selected compounds of Formula I.
Aurora-2 Enzymatic Assay. An ELISA-based enzymatic assay was used to determine the compound potency for Aurora-2. In this assay, phosphorylated Aurora-2 (Pi-Aurora-2) catalyzes the ATP-dependent phosphorylation of Ser-10 of Histone H3. Pi-Aurora-2 was produced by autophosphorylation of Aurora-2 (residues 125-391) by 1 mM ATP in the presence of 10 mM MgCl2. The assay buffer used was 100 mM HEPES, pH 7.5, 1 mM DTT, 0.01% (v/v) Tween-20. Compounds were diluted in assay buffer containing 4% DMSO just prior to the assay. • Procedure. High-binding 96-well ELISA plates (Costar 9018) were coated overnight at 4° C. with 10 μg/ml human Histone H3 (Upstate) in PBS (100 μl/well). The following day, the plates were emptied and blocked with 1% BSA in PBS (150 μl/well) for 1 h at 37° C. At the end of the incubation, plates were washed 3 times with 0.01% Tween-20 in PBS (300 μl/well). 50 μl of compound were dispensed to each well followed by addition of 20 μl 10 mM MgCl2 and 20 μl 50 μM ATP (Sigma). The reaction was initiated by addition of 10 μl 30 nM Pi-Aurora-2. […] The reaction was quenched with 9 μl 50 mM EDTA and the plates were washed 5 times with 0.01% Tween-20 in PBS (300 μl/well). The phospho-histone H3 (Ser10) 6G3 monoclonal antibody (Cell Signaling) was then diluted 2,000-fold with 1% BSA in PBS, and was added to the plates (100 μl/well). Following 1 h incubation at 37° C., the plates were washed as described above. The HRP-conjugated secondary antibody (goat anti-mouse Ig(H+ L)-HRP human absorbed, Southern Biotechnology Associates, Inc.) was diluted 20,000-fold with 1% BSA in PBS and was added to the plates (100 μl/well). The plates were incubated for 1 h at 37° C. and then washed 5 times with 0.01% Tween-20 in PBS (300 μl/well). 100 μl/well TMB, SureBlue Reserve (KPL) were added. After ca. 5-6 min, each well received 100 μl 1 M HCl and the OD450 was measured with a SpectraMax Plus microplate reader (Molecular Devices). Under these conditions, absorbance values for positive and negative controls were ca. 0.1 and 1.7, respectively, and were used to define the 100% and 0% inhibition of the Aurora-2 reaction. The IC50 values reported (Table 1) are the averages of three independent measurements.

pIC50	Structure (SMILES)
< 6.00	COc1ccc(-c2cnc3[nH]c(=O)n(Cc4ccccc4)c3n2)cn1 [Compound 11, 1-Benzyl-6-(6-methoxypyridin-3-yl)-1,3-dihydroimidazo[4,5-b]pyrazin-2-one]
> 6.30	COc1cc(-c2cnc3[nH]c(=O)n([C@@H](C)c4ccccc4)c3n2)cc(OC)c1OC [Compound 1, 1-((S)-(−)-1-Phenylethyl)-6-(3,4,5-trimethoxyphenyl)-1,3-dihydroimidazo[4,5-b]pyrazin-2-one]
> 6.30	COc1ccc(-c2cnc3[nH]c(=O)n(Cc4ccccc4)c3n2)cc1C(=O)O [Compound 23, 5-(3-Benzyl-2-oxo-2,3-dihydro-1H-imidazo[4,5-b]pyrazin-5-yl)-2-methoxybenzoic acid]
> 6.30	COc1cc(-c2cnc3[nH]c(=O)n(C4CCc5ccccc54)c3n2)cc(OC)c1OC (centres unmarked) [Compound 35, 1-Indan-1-yl-6-(3,4,5-trimethoxyphenyl)-1,3-dihydroimidazo[4,5-b]pyrazin-2-one]
< 6.00	COc1cc(OC)cc(-c2cnc3[nH]c(=O)n(Cc4ccccc4)c3n2)c1 [Compound 21, 1-Benzyl-6-(3,5-dimethoxyphenyl)-1,3-dihydro-imidazo[4,5-b]pyrazin-2-one]
< 6.00	COc1ccc(-c2cnc3[nH]c(=O)n(Cc4ccccc4)c3n2)cc1CO [Compound 24, 1-Benzyl-6-(3-hydroxymethyl-4-methoxyphenyl)-1,3-dihydro-imidazo[4,5-b]pyrazin-2-one]
> 6.30	COc1cc(-c2cnc3[nH]c(=O)n(Cc4ccccc4)c3n2)cc(OC)c1OC [Compound 3, 1-Benzyl-6-(3-4,5-trimethoxyphenyl)-1,3-dihydroimidazo[4,5-b]pyrazin-2-one]
> 6.30	COc1cc(-c2cnc3[nH]c(=O)n(Cc4ccc(N)cc4)c3n2)cc(OC)c1OC [Compound 38, 1-(4-Aminobenzyl)-6-(3,4,5-trimethoxyphenyl)-1,3-dihydroimidazo[4,5-b]pyrazin-2-one]
< 6.00	COc1ccc(-c2cnc3[nH]c(=O)n(Cc4ccccc4)c3n2)c(OC)c1 [Compound 14, 1-Benzyl-6-(2,4-dimethoxyphenyl)-1,3-dihydroimidazo[4,5-b]pyrazin-2-one]
< 6.00	COc1cc(-c2cnc3[nH]c(=O)n(Cc4cccc([N+](=O)[O-])c4)c3n2)cc(OC)c1OC [Compound 27, 1-(3-Nitrobenzyl)-6-(3,4,5-trimethoxyphenyl)-1,3-dihydroimidazo[4,5-b]pyrazin-2-one]
< 6.00	CC(=O)c1cccc(-c2cnc3[nH]c(=O)n(Cc4ccccc4)c3n2)c1 [Compound 13, 6-(3-Acetylphenyl)-1-benzyl-1,3-dihydroimidazo[4,5-b]pyrazin-2-one]
< 6.00	COc1ccc(-c2cnc3[nH]c(=O)n(Cc4ccccc4)c3n2)cc1C(N)=O [Compound 26, 5-(3-Benzyl-2-oxo-2,3-dihydro-1H-imidazo[4,5-b]pyrazin-5-yl)-2-methoxybenzamide]
> 6.30	COc1cc(-c2cnc3[nH]c(=O)n(Cc4ccccc4Cl)c3n2)cc(OC)c1OC [Compound 37, 1-(2-Chlorobenzyl)-6-(3,4,5-trimethoxyphenyl)-1,3-dihydro-imidazo[4,5-b]pyrazin-2-one]
< 6.00	COc1cc(-c2cnc3[nH]c(=O)n(Cc4cccc5ccccc45)c3n2)cc(OC)c1OC [Compound 33, 1-Naphthalen-1-ylmethyl-6-(3,4,5-trimethoxyphenyl)-1,3-dihydro-imidazo[4,5-b]pyrazin-2-one]
< 6.00	C[C@@H](c1ccccc1)n1c(=O)[nH]c2ncc(-c3ccc4[nH]ccc4c3)nc21 [Compound 4, 6-(1H-Indol-5-yl)-1-((S)-(−)-1-phenylethyl)-1,3-dihydroimidazo[4,5-b]pyrazin-2-one]
6.00 to 6.30	COc1cc(-c2cnc3[nH]c(=O)n(Cc4ccccn4)c3n2)cc(OC)c1OC [Compound 19, 1-Pyridin-2-ylmethyl-6-(3,4,5-trimethoxyphenyl)-1,3-dihydroimidazo[4,5-b]pyrazin-2-one]

pIC50	Structure (SMILES)
> 6.30	COc1cc(-c2cnc3[nH]c(=O)n(Cc4cccc(Cl)c4)c3n2)cc(OC)c1OC [Compound 29, 1-(3-Chlorobenzyl)-6-(3,4,5-trimethoxyphenyl)-1,3-dihydro-imidazo[4,5-b]pyrazin-2-one]
< 6.00	Cc1noc(C)c1-c1cnc2[nH]c(=O)n([C@@H](C)c3ccccc3)c2n1 [Compound 5, 6-(3,5-Dimethylisoxazol-4-yl)-1-((S)-(−)-1-phenylethyl)-1,3-dihydro-imidazo[4,5-b]pyrazin-2-one]
6.00 to 6.30	COc1cc(-c2cnc3[nH]c(=O)n(Cc4ccc(Cl)cc4)c3n2)cc(OC)c1OC [Compound 28, 1-(4-Chlorobenzyl)-6-(3,4,5-trimethoxyphenyl)-1,3-dihydro-imidazo[4,5-b]pyrazin-2-one]
6.00 to 6.30	COc1cc(-c2cnc3[nH]c(=O)n(Cc4cccc(C)c4)c3n2)cc(OC)c1OC [Compound 30, 1-(3-Methylbenzyl)-6-(3,4,5-trimethoxyphenyl)-1,3-dihydro-imidazo[4,5-b]pyrazin-2-one]
< 6.00	COCc1cccc(-c2cnc3[nH]c(=O)n(Cc4ccccc4)c3n2)c1 [Compound 12, 1-Benzyl-6-(3-methoxymethylphenyl)-1,3-dihydroimidazo[4,5-b]pyrazin-2-one]
< 6.00	C[C@@H](c1ccccc1)n1c(=O)[nH]c2ncc(-c3cc4ccccc4[nH]3)nc21 [Compound 8, 6-(1H-Indol-2-yl)-1-((S)-(−)-1-phenylethyl)-1,3-dihydro-imidazo[4,5-b]pyrazin-2-one]
< 6.00	COc1ccc(-c2cnc3[nH]c(=O)n(Cc4ccccc4)c3n2)cc1C=O [Compound 22, 5-(3-Benzyl-2-oxo-2,3-dihydro-1H-imidazo[4,5-b]pyrazin-5-yl)-2-methoxybenzaldehyde]
> 6.30	COc1cc(-c2cnc3[nH]c(=O)n(Cc4cccs4)c3n2)cc(OC)c1OC [Compound 36, 1-Thiophen-2-ylmethyl-6-(3,4,5-trimethoxyphenyl)-1,3-dihydro-imidazo[4,5-b]pyrazin-2-one]
6.00 to 6.30	COc1cc(-c2cnc3[nH]c(=O)n(Cc4cccc(N)c4)c3n2)cc(OC)c1OC [Compound 39, 1-(3-Aminobenzyl)-6-(3,4,5-trimethoxyphenyl)-1,3-dihydro-imidazo[4,5-b]pyrazin-2-one]
< 6.00	O=c1[nH]c2ncc(-c3ccsc3)nc2n1Cc1ccccc1 [Compound 15, 1-Benzyl-6-thiophen-3-yl-1,3-dihydroimidazo[4,5-b]pyrazin-2-one]
6.00 to 6.30	C[C@@H](c1ccccc1)n1c(=O)[nH]c2ncc(-c3cccc(CO)c3)nc21 [Compound 7, 6-(3-Hydroxymethylphenyl)-1-((S)-(−)-1-phenylethyl)-1,3-dihydro-imidazo[4,5-b]pyrazin-2-one]
6.00 to 6.30	COc1ccc(-c2cnc3[nH]c(=O)n(Cc4ccccc4)c3n2)cc1OC [Compound 10, 1-Benzyl-6-(3,4-dimethoxyphenyl)-1,3-dihydroimidazo[4,5-b]pyrazin-2-one]
6.00 to 6.30	O=C(O)c1cccc(-c2cnc3[nH]c(=O)n(Cc4ccccc4)c3n2)c1 [Compound 18, 3-(3-Benzyl-2-oxo-2,3-dihydro-1H-imidazo[4,5-b]pyrazin-5-yl)benzoic acid]
> 6.30	COc1cc(-c2cnc3[nH]c(=O)n(Cc4cccc(F)c4)c3n2)cc(OC)c1OC [Compound 31, 1-(3-Fluorobenzyl)-6-(3,4,5-trimethoxyphenyl)-10,3-dihydro-imidazo[4,5-b]pyrazin-2-one]
6.00 to 6.30	COc1cc(-c2cnc3[nH]c(=O)n(Cc4ccc5c(c4)OCO5)c3n2)cc(OC)c1OC [Compound 34, 1-Benzo[1,3]dioxol-5-ylmethyl-6-(3,4,5-trimethoxyphenyl)-1,3-dihydroimidazo[4,5-b]pyrazin-2-one]
6.00 to 6.30	O=C(O)c1cc(-c2cnc3[nH]c(=O)n(Cc4ccccc4)c3n2)ccc1O [Compound 25, 5-(3-Benzyl-2-oxo-2,3-dihydro-1H-imidazo[4,5-b]pyrazin-5-yl)-2-hydroxybenzoic acid]
